From article PMC3558798 (British Journal of Clinical Pharmacology, 2012)
Like-named read-outs stand apart in the source and are kept apart here.

Legend:
[1] = high calorie, high fat breakfast; cited from earlier work
[2] = system: international normalized ratio (INR); test: Single ascending-dose study: INR; type: in vivo, human; settings: for mean maximum INR: 0–24 h post-dose
[3] = system: activated partial thromboplastin time (aPTT); test: Single ascending-dose study: aPTT; type: in vivo, human
[4] = system: modified prothrombin time (mPT); test: Single ascending-dose study: modified prothrombin time; type: in vivo, human
[5] = system: international normalized ratio (INR); test: Food effect study: INR; type: in vivo, human; settings: for INR Mean (SD) change from baseline: 3 h after 10 mg oral tablet
[6] = system: activated partial thromboplastin time (aPTT); test: Food effect study: aPTT; type: in vivo, human; settings: 3 h after 10 mg oral tablet
prothrombin time (PT) = test: Food effect study: PT; type: in vivo, human; settings: 3 h after 10 mg oral tablet
[7] = Single ascending-dose study: template bleeding time; type: in vivo, human; settings: between pre-dose and 3.5 h post-dose
[8] = Single ascending-dose study: safety assessments; type: in vivo, human
[9] = Food effect study: safety assessments; type: in vivo, human
[10] = 10 mg, high fat, high calorie meal vs fasted
[11] = oral; cited from earlier work
venous thrombosis = settings: at doses that preserved haemostasis; cited from earlier work
thromboembolic events = settings: patients who had received total knee or hip replacement surgery; cited from earlier work
clinical [12] = settings: human, plasma; for half-life: oral; for AUC(0-inf) / AUC(0-t) / Cmax / Tmax: po; for Tmax: Median tmax, range over doses
clinical [13] = settings: human, plasma, oral, 10 mg; for AUC(0-t): AUC(0,t) Adjusted geometric mean; for AUC(0-inf): AUC(0,∞) Adjusted geometric mean; for Cmax: Cmax Adjusted geometric mean
[14] = cited from earlier work
[15] = single 10 mg dose following standard high calorie, high fat meal
[16] = single 20 mg dose following a similar meal

**Q.** For `[H]/N=C(/N)c1ccc(NCc2nc3cc(C(=O)N(CCC(=O)O)c4ccccn4)ccc3n2C)cc1` [dabigatran], which “effect of food on extent of absorption” value [1] is on record?
**A.** Its value is “did not affect the extent of absorption”.

**Q.** With `COc1ccc(-n2nc(C(N)=O)c3c2C(=O)N(c2ccc(N4CCCCC4=O)cc2)CC3)cc1` [apixaban, 1-(4-methoxyphenyl)-7-oxo-6-(4-(2-oxopiperidin-1-yl)phenyl)-4,5,6,7-tetrahydro-1H -pyrazolo[3,4-c]pyridine-3-carboxamide] as the molecule, how does the “mean % change from baseline in maximum INR” value ([2]; 10 mg dose) read?
**A.** The value was 19.5%.

**Q.** What about the “mean % change from baseline in maximum INR” value ([2]; 25 mg dose) of the same molecule?
**A.** Its value is 44.1%.

**Q.** What about the “mean maximum INR” value ([2]; 25 mg dose) of the same molecule?
**A.** The value was 1.45.

**Q.** And the “mean % change from baseline in maximum INR” value ([2]; 50 mg dose)?
**A.** Its value is 55.8%.

**Q.** What about the “mean maximum INR” value ([2]; 50 mg dose) of the same molecule?
**A.** Its value is 1.71.

**Q.** What about the “peak INR increase from baseline” value ([2]; after a 50 mg dose) of the same molecule?
**A.** The value was 1.6 fold.

**Q.** And the “time until changes in pharmacodynamic parameters were evident” value ([2]; following a single dose, clotting assay parameters (INR, aPTT and mPT))?
**A.** The value was “less than 1 h”.

**Q.** And the “mean % change from baseline in maximum aPTT” value ([3]; 25 mg dose)?
**A.** Its value is 25.7%.

**Q.** And the “mean maximum aPTT” value ([3]; 25 mg dose, baseline 30.4 s)?
**A.** The value was 38.2 s.

**Q.** And the “mean % change from baseline in maximum aPTT” value ([3]; 50 mg dose)?
**A.** Its value is 23.1%.

**Q.** And the “mean maximum aPTT” value ([3]; 50 mg dose, baseline 28.6 s)?
**A.** Its value is 35.1 s.

**Q.** What about the “peak aPTT increase from baseline” value ([3]; after a 50 mg dose) of the same molecule?
**A.** Its value is 1.2 fold.

**Q.** And the “mean % change from baseline in maximum mPT” value ([4]; 2.5 mg dose)?
**A.** Its value is 35.0%.

**Q.** What about the “mean % change from baseline in maximum mPT” value ([4]; 5 mg dose) of the same molecule?
**A.** Its value is 42.9%.

**Q.** And the “mean % change from baseline in maximum mPT” value ([4]; 10 mg dose)?
**A.** Its value is 87.1%.

**Q.** And the “mean % change from baseline in maximum mPT” value ([4]; 25 mg dose)?
**A.** The value was 135.3%.

**Q.** And the “mean % change from baseline in maximum mPT” value ([4]; 50 mg dose)?
**A.** The value was 187.1%.

**Q.** What about the “peak mPT increase from baseline” value ([4]; after a 50 mg dose) of the same molecule?
**A.** The value was 2.9 fold.

**Q.** And the “individual INR (highest)” value ([5]; 10 mg, fed and fasted)?
**A.** The value was ≤ 2.0.

**Q.** And the “time for INR, aPTT and PT to return to baseline” value ([5]; 10 mg, fed and fasted)?
**A.** The value was ≤ 24 h.

**Q.** What about the “INR Mean (SD) change from baseline” value ([5]; fasted, n = 23) of the same molecule?
**A.** The value was 0.23 (0.13).

**Q.** And the “INR Mean (SD) change from baseline” value ([5]; fed, n = 22)?
**A.** The value was 0.20 (0.12).

**Q.** And the “aPTT Mean (SD)” value ([6]; fasted, n = 23)?
**A.** Its value is 32.96 (3.59).

**Q.** And the “aPTT Mean (SD) change from baseline” value ([6]; fasted, n = 23)?
**A.** The value was 3.05 (2.59).

**Q.** What about the “aPTT Mean (SD)” value ([6]; fed, n = 22) of the same molecule?
**A.** The value was 31.55 (3.02).

**Q.** What about the “aPTT Mean (SD) change from baseline” value ([6]; fed, n = 22) of the same molecule?
**A.** Its value is 2.90 (2.21).

**Q.** And the “PT Mean (SD)” value (prothrombin time (PT); fasted, n = 23)?
**A.** The value was 14.99 (1.24).

**Q.** What about the “PT Mean (SD) change from baseline” value (prothrombin time (PT); fasted, n = 23) of the same molecule?
**A.** The value was 1.39 (0.89).

**Q.** What about the “PT Mean (SD)” value (prothrombin time (PT); fed, n = 22) of the same molecule?
**A.** The value was 14.66 (0.97).

**Q.** What about the “PT Mean (SD) change from baseline” value (prothrombin time (PT); fed, n = 22) of the same molecule?
**A.** The value was 1.30 (0.85).

**Q.** What about the “change in template bleeding time” value [7] of the same molecule?
**A.** Its value is ≤ 1 min.

**Q.** And the “subjects with bleeding-related AEs” value ([8]; haematochezia at 25 mg (one), haematuria at 50 mg (two), all mild)?
**A.** Its value is “Three subjects had bleeding-related AEs”.

**Q.** What about the “serious AEs or major bleeding-related events” value ([8]; single oral doses 0.5–50 mg) of the same molecule?
**A.** Its value is “no serious AEs or major bleeding-related events”.

**Q.** And the “dose-limiting AEs” value ([8]; single oral doses of up to 50 mg)?
**A.** The value was “No dose-limiting AEs were observed”.

**Q.** And the “elevated alanine transaminase level” value ([9]; one subject, discontinued, 10 mg)?
**A.** The value was 3 × upper limit of normal [ULN].

**Q.** What about the “elevations in aspartate aminotransferase and gamma-glutamyl transferase levels” value ([9]; same one subject, 10 mg) of the same molecule?
**A.** The value was < 2 × ULN.

**Q.** And the “bleeding-related AEs” value ([9]; single 10 mg doses)?
**A.** The value was “no bleeding-related AEs”.

**Q.** And the “serious AEs or major bleeding-related events” value ([9]; single 10 mg doses, fed and fasted)?
**A.** The value was “no serious AEs or major bleeding-related events”.

**Q.** And the “dose proportionality of Cmax, AUC(0,∞) and AUC(0,t)” value (0.5–50 mg)?
**A.** The value was “increased approximately proportionally to dose”.

**Q.** And the “Inter-subject variability, %CV for Cmax and AUC” value (across all doses, regardless of formulation)?
**A.** The value was “approximately 30%”.

**Q.** And the “increase in median tmax with food” value [10]?
**A.** Its value is 1 h.

**Q.** And the bioavailability [11]?
**A.** The bioavailability was ~50%.

**Q.** What about the antithrombotic effects (venous thrombosis) of the same molecule?
**A.** Its antithrombotic effects is “potent antithrombotic effects”.

**Q.** What about the “prevention of thromboembolic events vs enoxaparin 40 mg daily” value (thromboembolic events) of the same molecule?
**A.** Its value is “superior to enoxaparin”.

**Q.** And the half-life (clinical [12]; 10 mg, half-life, single doses, overall conclusion)?
**A.** The half-life was ~12 h.

**Q.** What about the half-life (clinical [12]; t1/2, range, doses that provided sufficient data to characterize the terminal elimination phase (i.e. 5–50 mg)) of the same molecule?
**A.** Its half-life is 7 to 27 h.

**Q.** And the AUC(0-inf) (clinical [12]; 0.5 mg)?
**A.** The AUC(0-inf) was 61.9 ng·h/mL.

**Q.** What about the AUC(0-t) (clinical [12]; 0.5 mg) of the same molecule?
**A.** Its AUC(0-t) is 52.7 ng·h/mL.

**Q.** What about the Cmax (clinical [12]; 0.5 mg) of the same molecule?
**A.** Its Cmax is 9.1 ng/mL.

**Q.** And the AUC(0-inf) (clinical [12]; 1 mg)?
**A.** The AUC(0-inf) was 174 ng·h/mL.

**Q.** What about the AUC(0-t) (clinical [12]; 1 mg) of the same molecule?
**A.** Its AUC(0-t) is 163 ng·h/mL.

**Q.** And the Cmax (clinical [12]; 1 mg)?
**A.** Its Cmax is 23.5 ng/mL.

**Q.** And the AUC(0-inf) (clinical [12]; 2.5 mg)?
**A.** Its AUC(0-inf) is 438 ng·h/mL.

**Q.** What about the AUC(0-t) (clinical [12]; 2.5 mg) of the same molecule?
**A.** The AUC(0-t) was 421 ng·h/mL.

**Q.** What about the Cmax (clinical [12]; 2.5 mg) of the same molecule?
**A.** The Cmax was 52.5 ng/mL.

**Q.** What about the AUC(0-inf) (clinical [12]; 5 mg) of the same molecule?
**A.** Its AUC(0-inf) is 1020 ng·h/mL.

**Q.** And the AUC(0-t) (clinical [12]; 5 mg)?
**A.** The AUC(0-t) was 977 ng·h/mL.

**Q.** And the Cmax (clinical [12]; 5 mg)?
**A.** The Cmax was 105 ng/mL.

**Q.** And the AUC(0-inf) (clinical [12]; 10 mg)?
**A.** Its AUC(0-inf) is 1300 ng·h/mL.

**Q.** And the AUC(0-t) (clinical [12]; 10 mg)?
**A.** The AUC(0-t) was 1270 ng·h/mL.

**Q.** And the Cmax (clinical [12]; 10 mg)?
**A.** The Cmax was 176 ng/mL.

**Q.** What about the AUC(0-inf) (clinical [12]; 25 mg) of the same molecule?
**A.** The AUC(0-inf) was 4010 ng·h/mL.

**Q.** And the AUC(0-t) (clinical [12]; 25 mg)?
**A.** The AUC(0-t) was 3870 ng·h/mL.

**Q.** What about the Cmax (clinical [12]; 25 mg) of the same molecule?
**A.** The Cmax was 365 ng/mL.

**Q.** And the AUC(0-inf) (clinical [12]; 50 mg)?
**A.** Its AUC(0-inf) is 7560 ng·h/mL.

**Q.** And the AUC(0-t) (clinical [12]; 50 mg)?
**A.** The AUC(0-t) was 7100 ng·h/mL.

**Q.** What about the Cmax (clinical [12]; 50 mg) of the same molecule?
**A.** Its Cmax is 685 ng/mL.

**Q.** What about the Tmax (clinical [12]; oral solution (0.5–2.5 mg)) of the same molecule?
**A.** The Tmax was 1.5 to 1.8 h.

**Q.** And the Tmax (clinical [12]; oral tablet (5–50 mg))?
**A.** Its Tmax is 2.5 to 3.3 h.

**Q.** What about the AUC(0-t) (clinical [13]; 10 mg fasted) of the same molecule?
**A.** The AUC(0-t) was 1730 ng·h/mL.

**Q.** And the AUC(0-t) (clinical [13]; 10 mg fed)?
**A.** Its AUC(0-t) is 1810 ng·h/mL.

**Q.** And the AUC(0-inf) (clinical [13]; 10 mg fasted)?
**A.** Its AUC(0-inf) is 1790 ng·h/mL.

**Q.** And the AUC(0-inf) (clinical [13]; 10 mg fed)?
**A.** Its AUC(0-inf) is 1870 ng·h/mL.

**Q.** What about the Cmax (clinical [13]; 10 mg fasted) of the same molecule?
**A.** The Cmax was 151 ng/mL.

**Q.** And the Cmax (clinical [13]; 10 mg fed)?
**A.** The Cmax was 165 ng/mL.

**Q.** And the half-life (clinical [13]; half-life, food effect study)?
**A.** Its half-life is ~11.5 h.

**Q.** With `O=C(NC[C@H]1CN(c2ccc(N3CCOCC3=O)cc2)C(=O)O1)c1ccc(Cl)s1` [rivaroxaban] as the molecule, how does the “increase in AUC(0,∞) with food” value [14, 15] read?
**A.** Its value is 28%.

**Q.** And the “increase in Cmax with food” value [14, 15]?
**A.** The value was 41%.

**Q.** And the “increase in AUC(0,∞) with food” value [14, 16]?
**A.** The value was 23%.

**Q.** And the “increase in Cmax with food” value [14, 16]?
**A.** Its value is 74%.
